# Measured values as given in ChEMBL document CHEMBL1154509, “Synthesis and in vitro biological activity of retinyl polyhydroxybenzoates, novel hybrid retinoid derivatives” (Bioorg Med Chem Lett, 2009).
# pIC50: −log10 of the molar value.
# What was measured:
# [1] = target: T1, Tyrosinase (Homo sapiens) (UniProt P14679); assay: Inhibition of tyrosinase at 5 uM
# T1 sequence (whole entry): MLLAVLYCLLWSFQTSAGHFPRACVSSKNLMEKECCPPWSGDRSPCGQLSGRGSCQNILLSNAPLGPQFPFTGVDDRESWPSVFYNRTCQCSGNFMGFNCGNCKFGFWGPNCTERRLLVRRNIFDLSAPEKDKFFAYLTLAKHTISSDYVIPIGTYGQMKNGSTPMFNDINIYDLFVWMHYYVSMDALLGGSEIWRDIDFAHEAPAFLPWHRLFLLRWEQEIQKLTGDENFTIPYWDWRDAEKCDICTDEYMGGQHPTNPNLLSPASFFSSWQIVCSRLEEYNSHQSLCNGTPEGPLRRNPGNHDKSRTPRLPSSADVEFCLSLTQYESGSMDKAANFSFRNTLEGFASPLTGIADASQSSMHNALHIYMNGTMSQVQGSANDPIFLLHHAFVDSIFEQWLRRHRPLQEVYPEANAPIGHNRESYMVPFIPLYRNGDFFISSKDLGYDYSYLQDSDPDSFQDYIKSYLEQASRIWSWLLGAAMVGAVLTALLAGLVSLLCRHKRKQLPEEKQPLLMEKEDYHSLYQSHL
# Fibroblast [2] = assay: Inhibition of melanogenesis in […] at 5 uM; type: functional
# [3] = Toxicity against human dermal fibroblasts; type: cell-based, Fibroblast
# [4] = Anti-aging activity in human dermal fibroblasts assessed as rate of procollagen formation at 0.005 weight % concentration relative to retinol; type: functional, Fibroblast
# Fibroblast [5] = assay: Skin whitening activity in […] assessed as inhibition of melanin formation at 0.001 weight % concentration relative to resveratrol; type: functional
# B16-F10 [6] = assay: Inhibition of rate of melanin formation in mouse B16/F10 cells at 10 ppm relative to control; type: functional
# [7] = Toxicity against mouse B16/F10 cells assessed as cell viability at 10 ppm relative to control; type: cell-based; conditions: read-out: Activity
# [8] = target: T2, Tyrosinase (Mus musculus) (UniProt P11344); assay: Inhibition of tyrosinase activity in mouse B16/F10 cells at 10 ppm relative to control; type: cell-based
# T2 sequence (whole entry): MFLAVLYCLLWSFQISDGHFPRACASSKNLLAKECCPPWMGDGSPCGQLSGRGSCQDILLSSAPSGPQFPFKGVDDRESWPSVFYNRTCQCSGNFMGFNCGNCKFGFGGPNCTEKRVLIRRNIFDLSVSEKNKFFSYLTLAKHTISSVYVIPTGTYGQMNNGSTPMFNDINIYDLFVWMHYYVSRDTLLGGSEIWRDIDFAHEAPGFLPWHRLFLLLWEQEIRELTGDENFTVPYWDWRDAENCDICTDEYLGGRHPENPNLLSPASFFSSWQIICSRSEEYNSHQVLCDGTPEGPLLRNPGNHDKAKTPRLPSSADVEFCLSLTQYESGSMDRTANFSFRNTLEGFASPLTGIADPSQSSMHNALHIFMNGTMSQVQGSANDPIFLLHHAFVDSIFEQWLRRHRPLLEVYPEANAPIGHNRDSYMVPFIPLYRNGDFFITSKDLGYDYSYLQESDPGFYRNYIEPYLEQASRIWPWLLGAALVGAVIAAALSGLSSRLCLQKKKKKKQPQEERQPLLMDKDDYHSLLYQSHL
# [9] = Toxicity against mouse B16/F10 cells assessed as cell viability at 5 uM relative to control; type: cell-based; conditions: read-out: Activity
# [10] = Toxicity against human dermal fibroblasts assessed as cell viability at 10 uM relative to control; type: cell-based, Fibroblast; conditions: read-out: Activity
# [11] = Anti-aging activity in human dermal fibroblasts assessed as inhibition rate of MMP1 expression at 10 uM relative to control; type: functional; conditions: Fibroblast
# [12] = Anti-aging activity in human dermal fibroblasts assessed as expression rate of procollagen type 1 formation at 10 uM relative to control; type: functional, Fibroblast
# [13] = Anti-aging activity in human dermal fibroblasts assessed as rate of procollagen formation at 0.0005 weight % concentration relative to retinol; type: functional, Fibroblast
# B16-F10 [14] = assay: Inhibition of rate of melanin formation in mouse B16/F10 cells at 5 uM relative to control; type: functional
# [15] = target: T2, Tyrosinase (Mus musculus); assay: Inhibition of tyrosinase activity in mouse B16/F10 cells at 5 uM relative to control; type: cell-based
# [16] = Anti-aging activity in human dermal fibroblasts assessed as rate of procollagen formation at 0.0001 weight % concentration relative to retinol; type: functional, Fibroblast
# [17] = Toxicity against human dermal fibroblasts assessed as cell viability at 1 uM relative to control; type: cell-based, Fibroblast; conditions: read-out: Activity
# [18] = Inhibition of elastase at 10 uM
# [19] = Inhibition of elastase at 5 uM
# [20] = Toxicity against human dermal fibroblasts assessed as cell viability at 200 uM relative to control; type: cell-based, Fibroblast; conditions: read-out: Activity
# [21] = Anti-aging activity in human dermal fibroblasts assessed as expression rate of procollagen type 1 formation at 200 uM relative to control; type: functional, Fibroblast
# [22] = Antioxidant activity assessed as free radical scavenging activity at 10 uM; type: functional
# [23] = Antioxidant activity assessed as free radical scavenging activity at 5 uM; type: functional
# [24] = Anti-aging activity in human dermal fibroblasts assessed as rate of procollagen formation at 0.001 weight % concentration relative to retinol; type: functional, Fibroblast
# Fibroblast [25] = assay: Skin whitening activity in […] assessed as inhibition of melanin formation at 0.002 weight % concentration relative to resveratrol; type: functional
# [26] = Anti-aging activity in human dermal fibroblasts assessed as rate of procollagen formation at 0.002 weight % concentration relative to retinol; type: functional, Fibroblast
# [27] = Anti-aging activity in human dermal fibroblasts assessed as inhibition rate of MMP1 expression at 1 uM relative to control; type: functional; conditions: Fibroblast
# [28] = Anti-aging activity in human dermal fibroblasts assessed as expression rate of procollagen type 1 formation at 1 uM relative to control; type: functional, Fibroblast
# [29] = Thermal stability at 40 degC assessed as compound degradation after 4 weeks by HPLC; type: physicochemical
# Fibroblast [30] = assay: Increase of collagen synthesis in human dermal fibroblasts at 5 uM; type: functional
# [31] = Anti-aging activity in human dermal fibroblasts assessed as inhibition rate of MMP1 expression at 5 uM relative to control; type: functional; conditions: Fibroblast
# [32] = Anti-aging activity in human dermal fibroblasts assessed as rate of procollagen formation at 0.0002 weight % concentration relative to retinol; type: functional, Fibroblast
# Fibroblast [33] = assay: Skin whitening activity in […] assessed as inhibition of melanin formation at 0.0002 weight % concentration relative to resveratrol; type: functional
# [34] = Anti-aging activity in human dermal fibroblasts assessed as expression rate of procollagen type 1 formation at 5 uM relative to control; type: functional, Fibroblast
# [35] = Toxicity against human dermal fibroblasts assessed as cell viability at 5 uM relative to control; type: cell-based, Fibroblast; conditions: read-out: Activity
structure (smiles),measurement,setting,value
OC[C@H]1O[C@@H](Oc2ccc(O)cc2)[C@H](O)[C@@H](O)[C@@H]1O [ARBUTIN],inhibition,[1],-1.5%
same,inhibition at 5 µM,Fibroblast [2],5.5%
COc1cccc(O)c1C(=O)OC/C=C(C)/C=C/C=C(C)/C=C/C1=CCCCC1(C)C,pIC50,[3],3.64
same,Activity,[4],54%
same,inhibition (INH),Fibroblast [5],28%
COc1cc(/C=C/C(=O)Oc2cc(C)ccc2C(C)C)cc(OC)c1OC,inhibition at 10 ppm,B16-F10 [6],39.3%
same,viability at 10 ppm,[7],95.4%
same,inhibition,[8],46.9%
COc1cccc(C(=O)OC/C=C(C)/C=C/C=C(C)/C=C/C2=CCCCC2(C)C)c1O,pIC50,[3],4.57
same,viability at 5 µM,[9],107%
same,viability at 10 µM,[10],126%
same,inhibition at 10 µM,[11],16.9%
same,inhibition (INH),Fibroblast [5],22%
same,Activity,[12],70%
same,Activity,[13],116%
same,inhibition at 5 µM,B16-F10 [14],16.2%
same,inhibition,[15],38.1%
CC(/C=C/C1=CCCCC1(C)C)=C\C=C\C(C)=C\COC(=O)c1cccc(O)c1O,pIC50,[3],> 5.00
same,Activity,[16],66%
same,viability at 5 µM,[9],97%
same,viability at 1 µM,[17],71.8%
same,inhibition (INH),Fibroblast [5],105%
same,inhibition at 5 µM,B16-F10 [14],18.6%
same,inhibition,[15],36.7%
CC1=C(/C=C/C(C)=C/C=C/C(C)=C/C(=O)O)C(C)(C)CCC1 [TRETINOIN],viability at 10 µM,[10],105%
same,inhibition at 10 µM,[11],59.2%
C[C@H]1[C@H](C)CC[C@]2(C(=O)O)CC[C@]3(C)C(=CC[C@@H]4[C@@]5(C)CC[C@H](O)C(C)(C)[C@@H]5CC[C@]43C)[C@H]12 [URSOLIC ACID],pIC50,[3],5.46
same,inhibition,[18],14.1%
same,inhibition,[19],10.3%
O=C1O[C@H]([C@@H](O)CO)C(O)=C1O [ASCORBIC ACID],viability at 200 µM,[20],95.4%
same,Activity,[21],127.5%
same,Activity,[22],38.6%
same,Activity,[23],19.1%
COc1cc(NC(C)=O)cc(C(=O)OC/C=C(C)/C=C/C=C(C)/C=C/C2=CCCCC2(C)C)c1O,pIC50,[3],> 5.00
same,Activity,[24],15%
CC(/C=C/C1=CCCCC1(C)C)=C\C=C\C(C)=C\COC(=O)c1ccccc1O,pIC50,[3],3.82
same,inhibition (INH),Fibroblast [25],34%
same,Activity,[26],46%
Oc1ccc(/C=C/c2cc(O)cc(O)c2)cc1 [RESVERATROL],pIC50,[3],3.05
same,inhibition,[1],36.2%
same,Activity,[22],16.7%
same,Activity,[23],5.6%
same,inhibition at 5 µM,Fibroblast [2],25.5%
COc1ccc(O)c(C(=O)OC/C=C(C)/C=C/C=C(C)/C=C/C2=CCCCC2(C)C)c1,pIC50,[3],3.24
same,Activity,[24],81%
same,inhibition (INH),Fibroblast [5],30%
CC(=O)Oc1ccccc1C(=O)OC/C=C(C)/C=C/C=C(C)/C=C/C1=CCCCC1(C)C,pIC50,[3],3.82
same,inhibition (INH),Fibroblast [25],32%
same,Activity,[26],61%
CC(/C=C/C1=CCCCC1(C)C)=C\C=C\C(C)=C\COC(=O)c1ccc(O)cc1O,pIC50,[3],3.92
same,Activity,[24],26%
same,inhibition (INH),Fibroblast [5],41%
CC(/C=C/C1=CCCCC1(C)C)=C\C=C\C(C)=C\COC(=O)c1c(O)cccc1O,pIC50,[3],4.85
same,viability at 5 µM,[9],102%
same,inhibition at 1 µM,[27],-63%
same,viability at 1 µM,[17],88.1%
same,Activity,[28],85.5%
same,inhibition (INH),Fibroblast [5],112%
same,Activity,[13],102%
same,inhibition at 5 µM,B16-F10 [14],12.7%
same,inhibition,[15],45.4%
CC1=C(/C=C/C(C)=C/C=C/C(C)=C/CO)C(C)(C)CCC1 [RETINOL],pIC50,[3],4.30
same,degraded at 672 h,[29]; read-out: Activity,70%
same,Activity,Fibroblast [30],33.4%
O=C(O[C@@H]1Cc2c(O)cc(O)cc2O[C@@H]1c1cc(O)c(O)c(O)c1)c1cc(O)c(O)c(O)c1 [EPIGALOCATECHIN GALLATE],viability at 10 µM,[10],95.2%
same,inhibition at 10 µM,[11],46.7%
CC(/C=C/C1=CCCCC1(C)C)=C\C=C\C(C)=C\COC(=O)c1cc(O)c2ccccc2c1O,pIC50,[3],3.38
same,inhibition (INH),Fibroblast [5],18%
same,Activity,[13],37%
COc1cc(O)c(C(=O)OC/C=C(C)/C=C/C=C(C)/C=C/C2=CCCCC2(C)C)c(O)c1,pIC50,[3],4.85
same,viability at 5 µM,[9],102%
same,viability at 10 µM,[10],92.6%
same,inhibition at 10 µM,[11],-17.4%
same,inhibition (INH),Fibroblast [5],95%
same,Activity,[12],89.2%
same,Activity,[13],55%
same,inhibition at 5 µM,B16-F10 [14],9.5%
same,inhibition,[15],41.9%
CC(/C=C/C1=CCCCC1(C)C)=C\C=C\C(C)=C\COC(=O)c1cc(O)ccc1O,pIC50,[3],4.85
same,viability at 5 µM,[9],99.7%
same,viability at 10 µM,[10],91.8%
same,inhibition at 10 µM,[11],-32.2%
same,inhibition (INH),Fibroblast [5],95%
same,Activity,[12],78.7%
same,Activity,[13],55%
same,inhibition at 5 µM,B16-F10 [14],25.8%
same,inhibition,[15],31.3%
CC(/C=C/C1=CCCCC1(C)C)=C\C=C\C(C)=C\COC(=O)c1cc(O)c(O)c(O)c1,pIC50,[3],4.46
same,inhibition at 5 µM,[31],-19.3%
same,Stability,[29]; 672 h,Stable
same,Activity,[32],91%
same,inhibition,[18],15.3%
same,inhibition,[1],2.5%
same,viability at 5 µM,[9],83.9%
same,inhibition,[19],12.3%
same,Activity,[22],62.8%
same,Activity,Fibroblast [30],13.5%
same,Activity,[23],31.1%
same,inhibition at 5 µM,Fibroblast [2],18.6%
same,inhibition (INH),Fibroblast [33],73%
same,Activity,[34],115.9%
same,inhibition at 5 µM,B16-F10 [14],27.5%
same,viability at 5 µM,[35],84.2%
same,inhibition,[15],49.6%
